The values below come from PubChem BioAssay AID1259407 (Chemical Carcinogenesis Research Information System (CCRIS), 2018).

Each structure is given as a SMILES string. The source made the active and inactive calls. The rule behind the calls is not given here.

The test system of this data set is CCRIS mutagenicity, Ames/micronucleus/aberration tests. As to the kind of experiment: CCRIS mutagenicity studies.
The mark [1] stands for this setting: Test System: AMES SALMONELLA TYPHIMURIUM, Strain/Indicator: TA98, Metabolic Activation: NONE, Method: STANDARD PLATE.
The mark [2] stands for this setting: Test System: AMES SALMONELLA TYPHIMURIUM, Strain/Indicator: TA98, Metabolic Activation: RAT, LIVER, S-9, AROCLOR 1254, Method: STANDARD PLATE.
Where [3] appears, read: Test System: AMES SALMONELLA TYPHIMURIUM, Strain/Indicator: TA100, Metabolic Activation: NONE, Method: STANDARD PLATE.
Where [4] appears, read: Test System: AMES SALMONELLA TYPHIMURIUM, Strain/Indicator: TA100, Metabolic Activation: RAT, LIVER, S-9, AROCLOR 1254, Method: STANDARD PLATE.
[5] abbreviates: Test System: AMES SALMONELLA TYPHIMURIUM, Strain/Indicator: TA1535, Metabolic Activation: NONE, Method: STANDARD PLATE.
[6] abbreviates: Test System: AMES SALMONELLA TYPHIMURIUM, Strain/Indicator: TA1535, Metabolic Activation: RAT, LIVER, S-9, AROCLOR 1254, Method: STANDARD PLATE.
The mark [7] stands for this setting: Test System: AMES SALMONELLA TYPHIMURIUM, Strain/Indicator: TA1537, Metabolic Activation: NONE, Method: STANDARD PLATE.
Setting [8] is: Test System: AMES SALMONELLA TYPHIMURIUM, Strain/Indicator: TA1537, Metabolic Activation: RAT, LIVER, S-9, AROCLOR 1254, Method: STANDARD PLATE.
The mark [9] stands for this setting: Test System: E. COLI, Strain/Indicator: WP2, Metabolic Activation: NONE, Method: STANDARD PLATE.
The mark [10] stands for this setting: Test System: E. COLI, Strain/Indicator: WP2, Metabolic Activation: RAT, LIVER, S-9, AROCLOR 1254, Method: STANDARD PLATE.
[11] abbreviates: Test System: AMES SALMONELLA TYPHIMURIUM, Strain/Indicator: TA98, Metabolic Activation: HAMSTER, LIVER, S-9, AROCLOR 1254 (30%), Method: PREINCUBATION
Where [12] appears, read: Test System: AMES SALMONELLA TYPHIMURIUM, Strain/Indicator: TA98, Metabolic Activation: NONE, Method: PREINCUBATION
Where [13] appears, read: Test System: AMES SALMONELLA TYPHIMURIUM, Strain/Indicator: TA98, Metabolic Activation: RAT, LIVER, S-9, AROCLOR 1254 (30%), Method: PREINCUBATION
Where [14] appears, read: Test System: AMES SALMONELLA TYPHIMURIUM, Strain/Indicator: TA100, Metabolic Activation: HAMSTER, LIVER, S-9, AROCLOR 1254 (30%), Method: PREINCUBATION
Setting [15] is: Test System: AMES SALMONELLA TYPHIMURIUM, Strain/Indicator: TA100, Metabolic Activation: NONE, Method: PREINCUBATION
The mark [16] stands for this setting: Test System: AMES SALMONELLA TYPHIMURIUM, Strain/Indicator: TA100, Metabolic Activation: RAT, LIVER, S-9, AROCLOR 1254 (30%), Method: PREINCUBATION

As to `O=S(O)(O)=S`, the mutagenic call is “inactive; negative” under setting [1]; “inactive; negative” under setting [2]; “inactive; negative” under setting [3]; “inactive; negative” under setting [4]; “inactive; negative” under setting [5]; “inactive; negative” under setting [6]. Further, the mutagenic call is, setting by setting: under setting [7], “inactive; negative”; under setting [8], “inactive; negative”; (Test System: AMES SALMONELLA TYPHIMURIUM, Strain/Indicator: TA1538, Metabolic Activation: NONE, Method: STANDARD PLATE) “inactive; negative”; (Test System: AMES SALMONELLA TYPHIMURIUM, Strain/Indicator: TA1538, Metabolic Activation: RAT, LIVER, S-9, AROCLOR 1254, Method: STANDARD PLATE) “inactive; negative”; under setting [9], “inactive; negative”; under setting [10], “inactive; negative”.

For `C#CC(OC(=O)NC1CCCCC1)(c1ccccc1)c1ccc(C)c(C)c1` (configuration not stated), the mutagenic call reads like this: under setting [3], “active; positive”; under setting [5], “active; positive”; (Test System: UDS HUMAN FIBROBLASTS, Strain/Indicator: THY INCORP (NON-S-PHASE), Metabolic Activation: NONE, Method: AUTORADIOGRAPHY) “active; positive”.

With `C1COC1`, the mutagenic call (Test System: AMES SALMONELLA TYPHIMURIUM, Strain/Indicator: TA97, Metabolic Activation: HAMSTER, LIVER, S-9, AROCLOR 1254 (30%), Method: PREINCUBATION) is “inactive; negative”; the mutagenic call (Test System: AMES SALMONELLA TYPHIMURIUM, Strain/Indicator: TA97, Metabolic Activation: NONE, Method: PREINCUBATION) was “inactive; negative”; the mutagenic call (Test System: AMES SALMONELLA TYPHIMURIUM, Strain/Indicator: TA97, Metabolic Activation: RAT, LIVER, S-9, AROCLOR 1254 (30%), Method: PREINCUBATION) is “inactive; negative”; the mutagenic call under setting [11] is “inactive; negative”; the mutagenic call under setting [12] is “inactive; negative”; the mutagenic call under setting [13] was “inactive; negative”. Moreover, the mutagenic call reads like this: under setting [14], “inactive; negative”; under setting [15], “inactive; negative”; under setting [16], “inactive; negative”; (Test System: AMES SALMONELLA TYPHIMURIUM, Strain/Indicator: TA1535, Metabolic Activation: HAMSTER, LIVER, S-9, AROCLOR 1254 (10 OR 30%), Method: PREINCUBATION) “active; positive”; (Test System: AMES SALMONELLA TYPHIMURIUM, Strain/Indicator: TA1535, Metabolic Activation: NONE, Method: PREINCUBATION) “inactive; negative”; (Test System: AMES SALMONELLA TYPHIMURIUM, Strain/Indicator: TA1535, Metabolic Activation: RAT, LIVER, S-9, AROCLOR 1254 (10 OR 30%), Method: PREINCUBATION) “active; positive”. Further, the mutagenic call is “inactive; negative” (Test System: AMES SALMONELLA TYPHIMURIUM, Strain/Indicator: TA1537, Metabolic Activation: HAMSTER, LIVER, S-9, AROCLOR 1254 (30%), Method: PREINCUBATION); “inactive; negative” (Test System: AMES SALMONELLA TYPHIMURIUM, Strain/Indicator: TA1537, Metabolic Activation: NONE, Method: PREINCUBATION); “inactive; negative” (Test System: AMES SALMONELLA TYPHIMURIUM, Strain/Indicator: TA1537, Metabolic Activation: RAT, LIVER, S-9, AROCLOR 1254 (30%), Method: PREINCUBATION).

Take `COc1cc(O)ccc1Nc1c2ccccc2nc2ccccc12`: the mutagenic call under setting [7] is “active; positive”.

On to `Nc1cc(N)cc(Cl)c1`, for which the mutagenic call runs as follows: (End Point: IN VITRO CHROMOSOMAL ABERRATIONS, Test System: CHL CELLS, Metabolic Activation: RAT, LIVER, S-9, SODIUM PHENOBARBITAL AND 5,6-BENZOFLAVONE) “active; positive (structural changes)”; (Test System: UDS RODENT HEPATOCYTES, Strain/Indicator: THY INCORP (NON-S-PHASE), Metabolic Activation: NONE, Method: AUTORADIOGRAPHY) “active; positive”.

Turning to `OCc1c2ccccc2c(CO)c2c1ccc1ccccc12`, the mutagenic call (Test System: AMES SALMONELLA TYPHIMURIUM, Strain/Indicator: TA98, Metabolic Activation: RAT, LIVER, S-9, NADPH GENERATING SYSTEM, Method: PREINCUBATION) was “inactive; negative” and the mutagenic call (Test System: AMES SALMONELLA TYPHIMURIUM, Strain/Indicator: TA98, Metabolic Activation: RAT, LIVER, S-105, PAPS GENERATING SYSTEM, Method: PREINCUBATION) is “active; positive”.

Regarding `Oc1ccccc1F`, the mutagenic call is, setting by setting: (Test System: MOUSE LYMPHOMA, Strain/Indicator: L5178Y (TK+/TK-), Metabolic Activation: RAT, LIVER, S-9, AROCLOR 1254, Method: SUSPENSION/PLATE) “active; positive. reevaluation of results: positive”; (Test System: Mouse lymphoma, Strain/Indicator: L5178Y (tk+/tk-), Metabolic Activation: None, Method: Suspension/plate) “inactive; negative”; (Test System: Mouse lymphoma, Strain/Indicator: L5178Y (tk+/tk-), Metabolic Activation: Rat, Liver, S-9, Aroclor 1254, Method: Suspension/plate) “inactive; inconclusive (previous evaluation negative)”.

In the case of `Clc1ccccc1-c1ccccc1`, the mutagenic call (End Point: In vivo mutagenicity, Test System: Liver, Species: Rat, Strain/Sex: Big Blue/Male, Route: Intraperitoneal) was “active; positive; statistically significant increase of mutant frequency of liver laci g”.

As to `CN(C(=O)c1csc([N+](=O)[O-])c1)c1ccccc1`, the mutagenic call runs as follows: under setting [1], “active; positive”; under setting [3], “active; positive”.

For the compound `Cn1cnc([N+](=O)[O-])c1Sc1ncnc2nc[nH]c12`, the mutagenic call runs as follows: under setting [11], “inactive; negative”; under setting [12], “inactive; negative”; under setting [13], “inactive; negative”; under setting [14], “active; positive”; under setting [15], “active; positive”; under setting [16], “active; positive”.

With `NC(=O)N/N=C(/CCN1CCCCC1)c1ccc([N+](=O)[O-])o1`, the mutagenic call is “active; positive” (Test System: E. COLI, Strain/Indicator: WP2, Metabolic Activation: NONE, Method: SPOT) and “active; positive” (Test System: E. COLI, Strain/Indicator: WP2 UVRA, Metabolic Activation: NONE, Method: SPOT).

On to `O=[N+]([O-])c1cccc(-c2ccc(O)c([N+](=O)[O-])c2)c1`, for which the mutagenic call under setting [12] was “active; positive”.

For the compound `CC(=O)O[C@H]1C[C@@H]2C(COC(=O)CC(C)C)=CO[C@@H](OC(=O)CC(C)C)[C@@H]2[C@@]12CO2`, the mutagenic call was “inactive; negative” under setting [1]; “inactive; negative” under setting [2]; “inactive; negative” under setting [3]; “active; positive” under setting [4]; “inactive; negative” under setting [5]; “inactive; negative” under setting [6]. Besides, the mutagenic call is “inactive; negative” under setting [7]; “inactive; negative” under setting [8]; “inactive; negative” under setting [9]; “active; positive” under setting [10]; “active; positive” (Test System: E. COLI, Strain/Indicator: WP2 UVRA, Metabolic Activation: NONE, Method: STANDARD PLATE); “active; positive” (Test System: E. COLI, Strain/Indicator: WP2 UVRA, Metabolic Activation: RAT, LIVER, S-9, AROCLOR 1254, Method: STANDARD PLATE).
